Experiment: Stability of dual anthelmintic solvent system, accelerated aging at 40° C. for 12 months
Type: physicochemical
Conditions: for Concentration after 6 months / Concentration after 12 months: active in solvent system of Example 4, 40° C. accelerated aging; for Initial concentration: active in solvent system of Example 4, initial

Molecule	Concentration after 6 months	Concentration after 12 months	Initial concentration
c1ccc([C@H]2CN3CCSC3=N2)cc1 [Levamisole]	25450 µg/mL	24100 µg/mL	27.15 g/L
Eprinomectin	15800 µg/mL	14600 µg/mL	16.5 g/L

— patent publication US12053545B2, “Transdermal solvent system and methods of use” (Donaghys Limited, priority 2019, dated 2024)
